The record followed here is patent publication US20190055279A1, “NOVEL POLYPEPTIDES WITH IMPROVED PROTEOLYTIC STABILITY, AND METHODS OF PREPARING AND USING SAME” (TUFTS UNIVERSITY, priority 2015, published 2019).

Entries after “also recorded” stand apart in the source; their conditions may differ. Where a SMILES comes first, the peptide text is derived from it. Side-chain parts run from the residue outwards. [ ]: non-standard residue; d: D form. The star is where a group is joined. N(CH2CF3)His = O=C(O)[C@H](Cc1c[nH]cn1)NCC(F)(F)F; Palmitoyl = CCCCCCCCCCCCCCCC(=O)*; βAla = NCCC(=O)O

The target of series [1] is T1, DPP4 (Homo sapiens, UniProt P27487). Description: Sensitivity to DPP4: overnight incubation with recombinant DPP4 or vehicle, then receptor agonist bioassay. The note with it: for DPP4 degradation / resistance (in words): overnight incubation with or without DPP4, readout at cognate receptor. As for the experimental part: Plotting concentration versus the luciferase activity yielded quantitative parameters for combined binding (potency) and signaling (efficacy) in a single step. […] DPP4 treated peptides: 10 μl of 0.26 mM peptide were incubated with 2 μL DPP4 in buffer ±DMSO for 18 hrs. Control peptides: 10 μl of 0.26 mM peptide was added to buffer ±DMSO. The final DMSO concentration was the same for all peptides and all peptides were diluted to 0.26 mM concentrations for the DPP4 assay.
Compounds are incubated overnight at 37° C. in the presence of recombinant DPP4 or vehicle (TRIS buffer). The samples are then assessed in GLP-1R agonist assays.
Compounds were incubated overnight at 37° C. in the presence of recombinant DPP4 or vehicle (TRIS buffer, pH 8.0). The samples were then assessed in GLP1R agonist assays as described elsewhere herein.

Series [2] has as its target T1, DPP4. Description: DPP4 degradation of GLP-2 peptides: incubation with recombinant DPP4, then GLP-2R reporter assay. Particulars: GLP-2R readout. (In general: A reporter such as luciferase makes a cellular process visible.)
Method: Peptides were incubated with vehicle or recombinant DPP4. Serial dilutions of GLP2-1 and GLP2-4 were then applied to HEK293 cells, which had been transfected with cDNA encoding human GLP-2R and a cAMP-responsive reporter gene.
Peptides were incubated with recombinant DPP4. Serial dilutions of GLP-2 and GLP2-4 were then applied to HEK293 cells, which had been transfected with cDNA encoding human GLP-2R and a cAMP-responsive reporter gene. […] N=4, mean+SEM.
DPP4 resistance (FIG. 13): Lipidated peptides are compared with the prototype, F-GLP2-palm. After an overnight incubation (16 hrs) in the presence vs. the absence of DPP4, receptor mediated function is assessed as shown elsewhere herein. As a DPP4 susceptible control, parallel experiments are done using GLP-2. […] Following overnight preincubation, serial dilutions of ligands were prepared and added to GLP-2R expressing cells for 4 hours. A luciferase reporter gene assay was used to monitor Gαs coupled second messenger signaling.
The nature of series [3]: Plasma GLP-2R agonist activity 24 h after s.c. injection in mice (luciferase reporter gene assay). Format: in vivo. Particulars: 1.25 μg s.c., compared with Gattex. As for the experimental part: Clearance of this compound was compared to that of Gattex, an established GLP-2 based drug, Compounds (1.25 μg) were injected subcutaneously (s.c.) in mice. Plasma was collected after 24 h and analyzed by luciferase reporter gene assay for GLP-2R agonist activity.
Compounds (1.25 μg) were injected s.c. in mice. Plasma was collected after 24 h and analyzed by luciferase reporter gene assay for GLP-2R agonist activity.

Another series relates to C57BL/6J mice. As to the kind of experiment: Intestinal mucosal growth after five daily s.c. injections in C57BL/6J mice. Format: in vivo. Particulars: s.c. once daily for five days; for intestinal mucosal growth / trophic effect: 25 μg/mouse for villus height; for intestinal weight: sacrificed on day 6, N=6 animals/group. As for the experimental part:
C57BL/6J mice were injected s.c. once daily for five days with either vehicle, GLP2-L17K(l1)-4, or Gattex at indicated doses. Animals were sacrificed on day 6, followed by analysis of intestinal tissue.
C57BL/6J mice were injected s.c. once daily for five days with either vehicle, GLP2-L17K [L1]-4 or Gattex at indicated doses. Animals were sacrificed on day 6, followed by measurement of intestinal weight. […] C57BL/6J mice were injected s.c. once daily for five days with either 25 μg of GLP2-L17K [L1]-4 or vehicle. Animals were sacrificed on day 6.

T1 sequence (P27487 whole entry, species assumed): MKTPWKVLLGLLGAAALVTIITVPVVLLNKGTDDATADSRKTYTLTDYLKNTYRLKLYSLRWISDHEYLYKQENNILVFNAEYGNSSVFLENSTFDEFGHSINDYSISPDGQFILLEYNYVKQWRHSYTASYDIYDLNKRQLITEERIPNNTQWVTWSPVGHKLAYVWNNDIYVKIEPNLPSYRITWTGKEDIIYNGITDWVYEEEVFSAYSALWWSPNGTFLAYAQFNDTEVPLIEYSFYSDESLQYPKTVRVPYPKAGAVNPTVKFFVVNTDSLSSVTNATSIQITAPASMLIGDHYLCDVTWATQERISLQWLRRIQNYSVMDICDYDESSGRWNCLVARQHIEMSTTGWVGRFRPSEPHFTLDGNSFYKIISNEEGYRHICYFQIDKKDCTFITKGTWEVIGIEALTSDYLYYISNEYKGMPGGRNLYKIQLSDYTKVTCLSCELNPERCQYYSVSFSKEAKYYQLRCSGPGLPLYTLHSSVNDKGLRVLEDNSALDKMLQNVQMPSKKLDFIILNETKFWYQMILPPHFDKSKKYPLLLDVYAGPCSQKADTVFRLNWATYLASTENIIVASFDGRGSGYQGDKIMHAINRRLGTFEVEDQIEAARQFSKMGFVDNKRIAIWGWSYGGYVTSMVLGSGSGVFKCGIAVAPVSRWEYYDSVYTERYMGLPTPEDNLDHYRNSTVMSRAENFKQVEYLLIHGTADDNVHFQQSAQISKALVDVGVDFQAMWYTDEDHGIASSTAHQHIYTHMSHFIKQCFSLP

`CC[C@H](C)[C@H](NC(=O)[C@H](Cc1ccccc1)NC(=O)[C@H](CCC(=O)O)NC(=O)[C@H](CCCCN)NC(=O)[C@H](C)NC(=O)[C@H](C)NC(=O)[C@H](CCC(N)=O)NC(=O)CNC(=O)[C@H](CCC(=O)O)NC(=O)[C@H](CC(C)C)NC(=O)[C@H](Cc1ccc(O)cc1)NC(=O)[C@H](CO)NC(=O)[C@H](CO)NC(=O)[C@@H](NC(=O)[C@H](CC(=O)O)NC(=O)[C@H](CO)NC(=O)[C@@H](NC(=O)[C@H](Cc1ccccc1)NC(=O)[C@@H](NC(=O)CNC(=O)[C@H](CCC(=O)O)NC(=O)[C@H](C)NC(=O)[C@H](Cc1c[nH]cn1)NCC(C)C)[C@@H](C)O)[C@@H](C)O)C(C)C)C(=O)N[C@@H](C)C(=O)N[C@@H](Cc1c[nH]c2ccccc12)C(=O)N[C@@H](CC(C)C)C(=O)N[C@H](C(=O)N[C@@H](CCCCN)C(=O)NCC(=O)N[C@@H](CCCNC(=N)N)C(N)=O)C(C)C` [G-6, isobutyl GLP-1]: the “DPP4 degradation / resistance (in words)” value on DPP4 [1] is reported as “virtually complete DPP4 resistance”.

Turning to `CC[C@H](C)[C@H](NC(=O)[C@H](C)NC(=O)[C@H](CC(=O)O)NC(=O)[C@H](C)NC(=O)[C@H](Cc1ccc(O)cc1)NCC(F)(F)F)C(=O)N[C@@H](Cc1ccccc1)C(=O)N[C@H](C(=O)N[C@@H](CC(N)=O)C(=O)N[C@@H](CO)C(=O)N[C@@H](Cc1ccc(O)cc1)C(=O)N[C@@H](CCCNC(=N)N)C(=O)N[C@@H](CCCCN)C(=O)N[C@H](C(=O)N[C@@H](CC(C)C)C(=O)NCC(=O)N[C@@H](CCC(N)=O)C(=O)N[C@@H](CC(C)C)C(=O)N[C@@H](CO)C(=O)N[C@@H](C)C(=O)N[C@@H](CCCNC(=N)N)C(=O)N[C@@H](CCCCN)C(=O)N[C@@H](CC(C)C)C(=O)N[C@@H](CC(C)C)C(=O)N[C@@H](CCC(N)=O)C(=O)N[C@@H](CC(=O)O)C(=O)N[C@H](C(=O)N[C@@H](CCSC)C(=O)N[C@@H](CO)C(=O)N[C@@H](CCCNC(=N)N)C(N)=O)[C@@H](C)CC)C(C)C)[C@@H](C)O` [GH29-4], the “DPP4 degradation / resistance (in words)” value on DPP4 [1] is listed as “resistant to enzyme induced potency loss”.

With `CC[C@H](C)[C@H](NC(=O)[C@H](Cc1ccccc1)NC(=O)[C@H](CC(=O)O)NC(=O)[C@H](CCCNC(=N)N)NC(=O)[C@H](C)NC(=O)[C@H](C)NC(=O)[C@H](CC(C)C)NC(=O)[C@H](CC(N)=O)NC(=O)[C@H](CC(=O)O)NC(=O)[C@H](CC(C)C)NC(=O)[C@@H](NC(=O)[C@@H](NC(=O)[C@H](CC(N)=O)NC(=O)[C@H](CCSC)NC(=O)[C@H](CCC(=O)O)NC(=O)[C@H](CC(=O)O)NC(=O)[C@H](CO)NC(=O)[C@H](Cc1ccccc1)NC(=O)[C@H](CO)NC(=O)CNC(=O)[C@H](CC(=O)O)NC(=O)[C@H](C)NC(=O)[C@H](Cc1c[nH]cn1)NCC(F)(F)F)[C@@H](C)O)[C@@H](C)CC)C(=O)N[C@@H](CC(N)=O)C(=O)N[C@@H](Cc1c[nH]c2ccccc12)C(=O)N[C@@H](CC(C)C)C(=O)N[C@H](C(=O)N[C@@H](CCC(N)=O)C(=O)N[C@H](C(=O)N[C@@H](CCCCN)C(=O)N[C@H](C(=O)N[C@H](C(=O)N[C@@H](CC(=O)O)C(=O)O)[C@@H](C)O)[C@@H](C)CC)[C@@H](C)O)[C@@H](C)CC` [GLP2-4], the figures for the “DPP4 degradation / resistance (in words)” value on DPP4 [2] and at DPP4 [2] (listed as GLP-2-4) were “no potency loss; also recorded: completely resistant to degradation” and “no potency loss”, respectively.

For the compound `CCCCCCCCCCCCCCCC(=O)NCCC(=O)NCCCC[C@H](NC(=O)[C@H](CC(N)=O)NC(=O)[C@H](CC(=O)O)NC(=O)[C@H](CC(C)C)NC(=O)[C@@H](NC(=O)[C@@H](NC(=O)[C@H](CC(N)=O)NC(=O)[C@H](CCSC)NC(=O)[C@H](CCC(=O)O)NC(=O)[C@H](CC(=O)O)NC(=O)[C@H](CO)NC(=O)[C@H](Cc1ccccc1)NC(=O)[C@H](CO)NC(=O)CNC(=O)[C@H](CC(=O)O)NC(=O)[C@H](C)NC(=O)[C@H](Cc1c[nH]cn1)NCC(F)(F)F)[C@@H](C)O)[C@@H](C)CC)C(=O)N[C@@H](C)C(=O)N[C@@H](C)C(=O)N[C@@H](CCCNC(=N)N)C(=O)N[C@@H](CC(=O)O)C(=O)N[C@@H](Cc1ccccc1)C(=O)N[C@H](C(=O)N[C@@H](CC(N)=O)C(=O)N[C@@H](Cc1c[nH]c2ccccc12)C(=O)N[C@@H](CC(C)C)C(=O)N[C@H](C(=O)N[C@@H](CCC(N)=O)C(=O)N[C@H](C(=O)N[C@@H](CCCCN)C(=O)N[C@H](C(=O)N[C@H](C(=O)N[C@@H](CC(=O)O)C(=O)O)[C@@H](C)O)[C@@H](C)CC)[C@@H](C)O)[C@@H](C)CC)[C@@H](C)CC` [GLP2-L17K(l1)-4] (H-[N(CH2CF3)His]ADGSFSDEMNTILDNK([βAla-Palmitoyl])AARDFINWLIQTKITD-OH; N-terminus and C-terminus assumed), the “bioactivity in plasma 24 h after injection” value was “extended bioactivity in vivo” in series [3] and “remains at high levels in the circulation” in series [3] (listed as GLP2-L17K [L1]-4). Besides, the “intestinal mucosal growth / trophic effect” value with C57BL/6J mice was “induces intestinal mucosal growth”; in the series on C57BL/6J mice (listed as GLP2-L17K [L1]-4), “trophic effect on the intestinal mucosa”. Also, the intestinal weight entry with C57BL/6J mice was “enhances intestinal weight”; in the series with C57BL/6J mice (listed as GLP2-L17K [L1]-4), “increased intestinal weight in a dose dependent manner”. Besides, the “DPP4 degradation / resistance (in words)” value at DPP4 [2] is “refractory to DPP4 degradation”; on DPP4 [2] (listed as F-GLP2-palm), “protease (DPP4) resistant”.

With `CC[C@H](C)[C@H](NC(=O)[C@H](Cc1ccccc1)NC(=O)[C@H](CCC(=O)O)NC(=O)[C@H](CCCCN)NC(=O)[C@H](C)NC(=O)[C@H](C)NC(=O)[C@H](CCC(N)=O)NC(=O)CNC(=O)[C@H](CCC(=O)O)NC(=O)[C@H](CC(C)C)NC(=O)[C@H](Cc1ccc(O)cc1)NC(=O)[C@H](CO)NC(=O)[C@H](CO)NC(=O)[C@@H](NC(=O)[C@H](CC(=O)O)NC(=O)[C@H](CO)NC(=O)[C@@H](NC(=O)[C@H](Cc1ccccc1)NC(=O)[C@@H](NC(=O)CNC(=O)[C@H](CCC(=O)O)NC(=O)[C@H](C)NC(=O)[C@H](Cc1c[nH]cn1)NC(C)=O)[C@@H](C)O)[C@@H](C)O)C(C)C)C(=O)N[C@@H](C)C(=O)N[C@@H](Cc1c[nH]c2ccccc12)C(=O)N[C@@H](CC(C)C)C(=O)N[C@H](C(=O)N[C@@H](CCCCN)C(=O)NCC(=O)N[C@@H](CCCNC(=N)N)C(N)=O)C(C)C` [GLP-1b], the “DPP4 degradation / resistance (in words)” value at DPP4 [1] is listed as “stability against DPP4”.

For the compound `CC[C@H](C)[C@H](NC(=O)[C@H](Cc1ccccc1)NC(=O)[C@H](CCC(=O)O)NC(=O)[C@H](CCCCN)NC(=O)[C@H](C)NC(=O)[C@H](C)NC(=O)[C@H](CCC(N)=O)NC(=O)CNC(=O)[C@H](CCC(=O)O)NC(=O)[C@H](CC(C)C)NC(=O)[C@H](Cc1ccc(O)cc1)NC(=O)[C@H](CO)NC(=O)[C@H](CO)NC(=O)[C@@H](NC(=O)[C@H](CC(=O)O)NC(=O)[C@H](CO)NC(=O)[C@@H](NC(=O)[C@H](Cc1ccccc1)NC(=O)[C@@H](NC(=O)CNC(=O)[C@H](CCC(=O)O)NC(=O)[C@H](C)NC(=O)[C@H](Cc1c[nH]cn1)NCc1ccccc1)[C@@H](C)O)[C@@H](C)O)C(C)C)C(=O)N[C@@H](C)C(=O)N[C@@H](Cc1c[nH]c2ccccc12)C(=O)N[C@@H](CC(C)C)C(=O)N[C@H](C(=O)N[C@@H](CCCCN)C(=O)NCC(=O)N[C@@H](CCCNC(=N)N)C(N)=O)C(C)C` [benzyl], the “DPP4 degradation / resistance (in words)” value on DPP4 [1] is listed as “virtually complete DPP4 resistance”.

On to `CCCCCCCCCCCCCCCC(=O)N[C@@H](CCC(=O)NCCCC[C@H](NC(=O)[C@H](C)NC(=O)[C@H](C)NC(=O)[C@H](CCC(N)=O)NC(=O)CNC(=O)[C@H](CCC(=O)O)NC(=O)[C@H](CC(C)C)NC(=O)[C@H](Cc1ccc(O)cc1)NC(=O)[C@H](CO)NC(=O)[C@H](CO)NC(=O)[C@@H](NC(=O)[C@H](CC(=O)O)NC(=O)[C@H](CO)NC(=O)[C@@H](NC(=O)[C@H](Cc1ccccc1)NC(=O)[C@@H](NC(=O)CNC(=O)[C@H](CCC(=O)O)NC(=O)[C@H](C)NC(=O)[C@@H](N)Cc1cnc[nH]1)[C@@H](C)O)[C@@H](C)O)C(C)C)C(=O)N[C@@H](CCC(=O)O)C(=O)N[C@@H](Cc1ccccc1)C(=O)N[C@H](C(=O)N[C@@H](C)C(=O)N[C@@H](Cc1c[nH]c2ccccc12)C(=O)N[C@@H](CC(C)C)C(=O)N[C@H](C(=O)N[C@@H](CCCNC(=N)N)C(=O)NCC(=O)N[C@@H](CCCNC(=N)N)C(=O)NCC(=O)O)C(C)C)[C@@H](C)CC)C(=O)O` [liraglutide], for which, at DPP4 [1] (overnight incubation with the enzyme, GLP-1R readout), the “potency loss after incubation with DPP4” value is on record as greater than 50 fold.

Turning to Glucagon, the “DPP4 degradation / resistance (in words)” value at DPP4 [1] was “degraded by DPP4”.
